Measurements as given in PubChem BioAssay (NCI).
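Dose response: 5 concentrations. Exposure: 48 h. Format: 96-well plates. Endpoint: linear interpolation; highest concentration if not reached. GI50 marks 50% less growth. Definition used: TGI = concentration required for complete inhibition of growth.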

Key:
Assay in all cases: NCI anticancer screen, dose series, 48 h; in the data active = GI50 below about 0.43 µM; inactive = the rest
NCI-H23 lung = tested on: NCI-H23 lung
SF-539 CNS = tested on: SF-539 CNS
T-47D breast = tested on: T-47D breast
CCRF-CEM leukemia = tested on: CCRF-CEM leukemia
COLO 205 colon = tested on: COLO 205 colon
SNB-19 CNS = tested on: SNB-19 CNS
BT-549 breast = tested on: BT-549 breast
SK-MEL-2 melanoma = tested on: SK-MEL-2 melanoma
ACHN renal = tested on: ACHN renal
RXF 393 renal = tested on: RXF 393 renal
M14 melanoma = tested on: M14 melanoma
UACC-62 melanoma = tested on: UACC-62 melanoma
OVCAR-3 ovarian = tested on: OVCAR-3 ovarian
MALME-3M melanoma = tested on: MALME-3M melanoma
OVCAR-4 ovarian = tested on: OVCAR-4 ovarian
TK-10 renal = tested on: TK-10 renal
DU-145 prostate = tested on: DU-145 prostate
SNB-75 CNS = tested on: SNB-75 CNS
EKVX NSCLC = tested on: EKVX NSCLC
MDA-MB-231 breast = tested on: MDA-MB-231 breast
A549 NSCLC = tested on: A549 NSCLC
UO-31 renal = tested on: UO-31 renal
786-0 renal = tested on: 786-0 renal
LOX IMVI melanoma = tested on: LOX IMVI melanoma
SN12C renal = tested on: SN12C renal
NCI-H460 lung = tested on: NCI-H460 lung
HCT-116 colon = tested on: HCT-116 colon
SK-OV-3 ovarian = tested on: SK-OV-3 ovarian
HOP-62 NSCLC = tested on: HOP-62 NSCLC
HOP-92 NSCLC = tested on: HOP-92 NSCLC
SF-268 CNS = tested on: SF-268 CNS
SK-MEL-28 melanoma = tested on: SK-MEL-28 melanoma
SF-295 CNS = tested on: SF-295 CNS
IGROV1 ovarian = tested on: IGROV1 ovarian
MOLT-4 leukemia = tested on: MOLT-4 leukemia
SR leukemia = tested on: SR leukemia
CAKI-1 renal = tested on: CAKI-1 renal
RPMI-8226 leukemia = tested on: RPMI-8226 leukemia
PC-3 prostate = tested on: PC-3 prostate
SW-620 colon = tested on: SW-620 colon
OVCAR-8 ovarian = tested on: OVCAR-8 ovarian
HS 578T breast = tested on: HS 578T breast
SK-MEL-5 melanoma = tested on: SK-MEL-5 melanoma
OVCAR-5 ovarian = tested on: OVCAR-5 ovarian
UACC-257 melanoma = tested on: UACC-257 melanoma
KM12 colon = tested on: KM12 colon
HCT-15 colon = tested on: HCT-15 colon
NCI/ADR-RES ovarian = tested on: NCI/ADR-RES ovarian
HCC-2998 colon = tested on: HCC-2998 colon
A498 renal = tested on: A498 renal
HL-60(TB) leukemia = tested on: HL-60(TB) leukemia
MCF7 breast = tested on: MCF7 breast
NCI-H226 lung = tested on: NCI-H226 lung
NCI-H522 lung = tested on: NCI-H522 lung
HT29 colon = tested on: HT29 colon
U251 CNS = tested on: U251 CNS

COc1ccccc1/C=C/C=N/NC1=NC2C(S1)N(C)C(=O)N2C (configuration not stated)
33.2 µM: TGI (HCC-2998 colon)
77.7 µM: TGI (MALME-3M melanoma)
4.54 µM: TGI (NCI-H522 lung)
51.9 µM: TGI (OVCAR-8 ovarian)
32.3 µM: TGI (HOP-92 NSCLC)
43 µM: TGI (M14 melanoma)
30.4 µM: TGI (SR leukemia)
90.2 µM: TGI (NCI-H226 lung)
21.2 µM: TGI (LOX IMVI melanoma)
17 µM: TGI (RXF 393 renal)
38.5 µM: TGI (SF-268 CNS)
13.8 µM: TGI (SK-MEL-5 melanoma)
70.3 µM: TGI (786-0 renal)
> 100 µM: TGI (NCI-H23 lung) | TGI (T-47D breast) | TGI (CCRF-CEM leukemia) | TGI (SNB-19 CNS) | TGI (OVCAR-4 ovarian) | TGI (DU-145 prostate) | TGI (EKVX NSCLC) | TGI (A549 NSCLC) | TGI (NCI-H460 lung) | TGI (HOP-62 NSCLC) | TGI (SK-MEL-28 melanoma) | TGI (IGROV1 ovarian) | TGI (MOLT-4 leukemia) | TGI (CAKI-1 renal) | TGI (RPMI-8226 leukemia) | TGI (PC-3 prostate) | TGI (SW-620 colon) | TGI (HS 578T breast) | TGI (OVCAR-5 ovarian) | TGI (UACC-257 melanoma) | TGI (HCT-15 colon) | TGI (NCI/ADR-RES ovarian) | TGI (MCF7 breast) | TGI (U251 CNS)
38.2 µM: TGI (SF-295 CNS)
66.4 µM: TGI (SK-OV-3 ovarian)
94.6 µM: TGI (A498 renal)
75.8 µM: TGI (MDA-MB-231 breast)
inactive: GI50 (NCI-H23 lung) 7.62 µM | GI50 (SF-539 CNS) 2.59 µM | GI50 (T-47D breast) 5.6 µM | GI50 (CCRF-CEM leukemia) 4.42 µM | GI50 (COLO 205 colon) 4.8 µM | GI50 (SNB-19 CNS) 6.28 µM | GI50 (BT-549 breast) 2.94 µM | GI50 (SK-MEL-2 melanoma) 3.02 µM | GI50 (ACHN renal) 5.67 µM | GI50 (RXF 393 renal) 2.43 µM | GI50 (M14 melanoma) 3.9 µM | GI50 (UACC-62 melanoma) 2.99 µM | GI50 (OVCAR-3 ovarian) 2.5 µM | GI50 (MALME-3M melanoma) 4.73 µM | GI50 (OVCAR-4 ovarian) 9.21 µM | GI50 (TK-10 renal) 14.3 µM | GI50 (DU-145 prostate) 5.74 µM | GI50 (SNB-75 CNS) 2.82 µM | GI50 (EKVX NSCLC) 9.85 µM | GI50 (MDA-MB-231 breast) 9.27 µM | GI50 (A549 NSCLC) 7.31 µM | GI50 (UO-31 renal) 4.03 µM | GI50 (786-0 renal) 5.77 µM | GI50 (LOX IMVI melanoma) 4.94 µM | GI50 (SN12C renal) 4.4 µM | GI50 (NCI-H460 lung) 3.95 µM | GI50 (HCT-116 colon) 4.36 µM | GI50 (SK-OV-3 ovarian) 6.93 µM | GI50 (HOP-62 NSCLC) 7.76 µM | GI50 (HOP-92 NSCLC) 3.39 µM | GI50 (SF-268 CNS) 6.78 µM | GI50 (SK-MEL-28 melanoma) 8.86 µM | GI50 (SF-295 CNS) 3.68 µM | GI50 (IGROV1 ovarian) 8.3 µM | GI50 (MOLT-4 leukemia) 4.54 µM | GI50 (SR leukemia) 2.74 µM | GI50 (CAKI-1 renal) 4.11 µM | GI50 (RPMI-8226 leukemia) 4.8 µM | GI50 (PC-3 prostate) 5.28 µM | GI50 (SW-620 colon) 4.07 µM | GI50 (OVCAR-8 ovarian) 5.47 µM | GI50 (HS 578T breast) 3.82 µM | GI50 (SK-MEL-5 melanoma) 3.61 µM | GI50 (OVCAR-5 ovarian) 5.55 µM | GI50 (UACC-257 melanoma) 8.11 µM | GI50 (KM12 colon) 3.92 µM | GI50 (HCT-15 colon) 3.96 µM | GI50 (NCI/ADR-RES ovarian) 4.19 µM | GI50 (HCC-2998 colon) 10.5 µM | GI50 (A498 renal) 11.1 µM | GI50 (HL-60(TB) leukemia) 0.545 µM | GI50 (MCF7 breast) 2.91 µM | GI50 (NCI-H226 lung) 3.53 µM | GI50 (NCI-H522 lung) 1.68 µM | GI50 (HT29 colon) 3.33 µM | GI50 (U251 CNS) 5.02 µM
20.3 µM: TGI (COLO 205 colon)
13.2 µM: TGI (HT29 colon)
90.8 µM: TGI (HCT-116 colon)
12.9 µM: TGI (BT-549 breast)
4.37 µM: TGI (HL-60(TB) leukemia)
49.3 µM: TGI (SNB-75 CNS)
93.9 µM: TGI (ACHN renal)
43.6 µM: TGI (UO-31 renal)
8.6 µM: TGI (SF-539 CNS)
6.6 µM: TGI (OVCAR-3 ovarian)
30.7 µM: TGI (SN12C renal)
15.1 µM: TGI (SK-MEL-2 melanoma)
72.5 µM: TGI (TK-10 renal)
17.7 µM: TGI (KM12 colon)
34.1 µM: TGI (UACC-62 melanoma)
